Literature values as cited in patent US20100035939A1, “PENETRATING CARRIER, ANTI-FUNGAL COMPOSITION USING THE SAME AND METHOD FOR TREATMENT OF DERMATOPHYTES” (priority 2004, published 2010).

Tested on: fungal toenail

CN(C/C=C/C#CC(C)(C)C)Cc1cccc2ccccc12 [terbinafine]
patients with a serious reaction to the drug (in vivo, po): One in 500 | reoccurrence of the fungal toenail (oral administration, in the first year): 15%
